Tested on: Candida albicans ATCC10231
Assay: Systemic fungal infection in mice, administration by gavage, survival
Assay type: in vivo
Conditions: ICR mice, 5 mg/kg (calculated as voriconazole) once daily for 5 days
Outline: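 Male ICR mice (18-22 g) infected via tail vein with C. albicans ATCC10231 at 5*10^6/ml, 0.1 ml/10 g. Starting 2 h post-infection, 5 mg/kg (as voriconazole) given by gavage once daily for 5 days; saline for model group. Groups of 10; survival time recorded over 7 days.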

## CC(OC(=O)SCCO)[n+]1cnn(C[C@](O)(c2ccc(F)cc2F)[C@@H](C)c2ncncc2F)c1 (stereo partly shown) [Compound 16037]
Day 1
  survival rate of mice, day 1: 100%
Day 2
  survival rate of mice, day 2: 100%
Day 3
  survival rate of mice, day 3: 100%
Day 4
  survival rate of mice, day 4: 100%
Day 5
  survival rate of mice, day 5: 90%
Day 6
  survival rate of mice, day 6: 80%
Day 7
  survival rate of mice, day 7: 80%
